In one data set the test system is pentagastrin-stimulated acid secretion of the perused rat stomach. Nature of the data set: Secretion-inhibiting action on the perfused rat stomach (pentagastrin-stimulated, in vivo). To be noted: anesthetized CD rat, dose 3 μmol/kg i.v. An excerpt: Testing of the Secretion-Inhibiting Action on the Perfused Rat Stomach
The abdomen of anesthetized rats (CD rat, female, 200-250 g; […] i.m. urethane) was opened after tracheotomy by means of a median upper abdominal incision and a PYC catheter was fixed transorally in the esophagus and another via the pylorus such that the ends of the tube just projected into the gastric lumen. The catheter leading from the pylorus led outwards into the right abdominal wall through a side opening.
After thorough rinsing (about 50-100 ml), warm physiological NaCl solution at 37° C. was continuously passed through the stomach (0.5 ml/min. pH 6.8-6.9; Braun-Unita I). The pH (pH meter 632, glass electrode EA 147; φ=5 mm, Metrohm) and, by titration with a freshly prepared 0.01 N NaOH solution to pH 7 (Dosimat 665 Metrohm), the secreted HCl were determined in the effluent in each case collected at an interval of 15 minutes.
The gastric secretion was stimulated by continuous infusion of 1 μg/kg (=1.65 ml/h) of I.v. pentagastrin (left femoral vein) about 30 min after the end of the operation (i.e after determination of 2 preliminary fractions). The substances to be tested were administered intravenously in 1 ml/kg liquid volumes 60 min after the start of the pentagastrin continuous infusion.
The body temperature of the animals was kept at a constant 37.8-38° C. by infrared irradiation and heat pads (automatic, stepless control by means of a rectal temperature sensor).
Take `CCO[C@@H]1c2ccn3c(C)c(C)nc3c2N[C@H](c2ccccc2)[C@H]1O` [Example 4, (7R, 8R, 9R)-2,3Dimethyl-7-ethoxy-8-hydroxy-phenyl-7,8,9,10-tetrahydro-imidazo[1,2-h]-[1,7]naphythryridine]: the “Inhibition of acid secretion” value worked out at 100%.

As for `CO[C@@H]1c2ccn3c(C)c(C)nc3c2N[C@H](c2ccccc2)[C@H]1O` [Example 1], the “Inhibition of acid secretion” value is 100%.

In the case of `CO[C@H]1c2ccn3c(C)c(C)nc3c2N[C@H](c2ccccc2)[C@H]1O` [Example 2, (7S, 8R, 9R)-2,3-Dimethyl-8-hydroxy-7-methoxy-9-phenyl-7,8,9,10-tetrahydro-imidazo[1,2-h]-[1,7]naphythyridine], the “Inhibition of acid secretion” value is 100%.

On to `CO[C@@H]1[C@@H](c2ccccc2)Nc2c(ccn3c(C)c(C)nc23)[C@H]1OC` [Example 8], for which the “Inhibition of acid secretion” value is on record as 100%.

Take `COCCO[C@H]1c2ccn3c(C)c(C)nc3c2N[C@H](c2ccccc2)[C@H]1O` [Example 6, (7S, 8R, 9R)-2,3-Dimethyl-8-hydroxy-7-(2-methoxyethoxy)-9-phenyl-7,8,9,10-tetrahydro-imiazo[1,2-h][1,7]naphthyridine]: the “Inhibition of acid secretion” value came out at 100%.

The data set is the same for the next values; noted with them: iv, anesthetized CD rat, dose 3 μmol/kg i.v.
For `Cc1nc2c3c(ccn2c1C)[C@H](OC(C)C)[C@H](O)[C@@H](c1ccccc1)N3` [Example 7, (7S, 8R, 9R)-2,3-Dimethyl-8-hydroxy-9-phenyl-7-(2-propoxy)-7,8,9,10-tetrahydro-imidazo[1,2-h][1,7]naphthyridine], the inhibition – broadly, the percentage by which the read-out fell short of the control – at 3 µmol/kg came out at 100%.

On to `COCCO[C@@H]1c2ccn3c(C)c(C)nc3c2N[C@H](c2ccccc2)[C@H]1O` [Example 5, (7R, 8R, 9R)-2,3-Dimethyl-8-hydroxy-7-(2-methoxyethoxy)-9-phenyl-7,8,9,10-tetrahydro-imidazo[1,2-h][1,7]naphthyridine], for which the inhibition at 3 µmol/kg is 100%.

`CCO[C@@H]1c2ccn3c(C)c(C)nc3c2N[C@H](c2ccccc2)[C@H]1O` [Example 3, (7R, 8R, 9R)-2,3-Dimethyl-7-ethoxy-8-hydroxy-9-phenyl-7,8,9,10-tetrahydro-imidazo[1,2-h]-[1,7]naphthyridine] displayed an inhibition at 3 µmol/kg of 100%.

Tested on in the next data set: not given
Assay: not given
Conditions: not given
Turning to `CO[C@H]1c2ccn3c(C)c(C)nc3c2N[C@@H](c2ccccc2)[C@@H]1O` [Example 1B, (7S, 8S, 9S)-2,3-Dimethyl-8-hydroxy-7-methoxy-9-phenyl-7,8,9,10-tetrahydro-imidazo[1,2-h]-[1,7]naphthyridine], the melting point – broadly, the temperature, or range, at which the solid turns liquid – lay within 161 to 162 °C.

As to `Cc1nc2c3c(ccn2c1C)[C@H](OC(C)C)[C@H](O)[C@@H](c1ccccc1)N3` [Example 7, (7S, 8R, 9R)-2,3-Dimethyl-8-hydroxy-9-phenyl-7-(2-propoxy)-7,8,9,10-tetrahydro-imidazo[1,2-h][1,7]naphthyridine], the melting point was 168 to 169 °C.

On to `CO[C@@H]1c2ccn3c(C)c(C)nc3c2N[C@@H](c2ccccc2)[C@@H]1O` [Example 2B, (7R, 8S, 9S)-2,3-Dimethyl-8-hydroxy-7-methoxy-9-phenyl-7,8,9,10-tetrahydro-imidazo[1,2-h]-[1,7]naphthyridine], for which the melting point lay within 171 to 172 °C.

For the molecule `CCO[C@@H]1c2ccn3c(C)c(C)nc3c2N[C@H](c2ccccc2)[C@H]1O` [Example 3, (7R, 8R, 9R)-2,3-Dimethyl-7-ethoxy-8-hydroxy-9-phenyl-7,8,9,10-tetrahydro-imidazo[1,2-h]-[1,7]naphthyridine], the melting point is 188 to 190 °C.
